Structures are written as SMILES. pKd: −log10 of the molar value.

In this assay the target is hCereblon(M1-L442)_hDDB1(M1-H1140) (Homo sapiens (Human), UniProt Q96SW2). Kind of assay: Fluorescence direct binding protocol (tryptophan fluorescence titration). Conditions: fluorescence titration at 20° C., excited at 280 nm, recorded at 340 nm; protein 5.0 E−8 M; assay buffer 50 mM Hepes 7.4 200 mM NaCl; read-out: Fluorescence h-Cereblon_DDB1 Mean Kd_EQ. In outline: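 At 20° C., protein at constant concentration was titrated with ligand in DMSO over at least 12 steps, exciting tryptophan at 280 nm and reading emission at 340 nm. Intensities were corrected for dilution and filter effect, and Kd was fitted assuming 1:1 binding.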
Sequence of hCereblon(M1-L442)_hDDB1(M1-H1140) (Q96SW2 whole entry): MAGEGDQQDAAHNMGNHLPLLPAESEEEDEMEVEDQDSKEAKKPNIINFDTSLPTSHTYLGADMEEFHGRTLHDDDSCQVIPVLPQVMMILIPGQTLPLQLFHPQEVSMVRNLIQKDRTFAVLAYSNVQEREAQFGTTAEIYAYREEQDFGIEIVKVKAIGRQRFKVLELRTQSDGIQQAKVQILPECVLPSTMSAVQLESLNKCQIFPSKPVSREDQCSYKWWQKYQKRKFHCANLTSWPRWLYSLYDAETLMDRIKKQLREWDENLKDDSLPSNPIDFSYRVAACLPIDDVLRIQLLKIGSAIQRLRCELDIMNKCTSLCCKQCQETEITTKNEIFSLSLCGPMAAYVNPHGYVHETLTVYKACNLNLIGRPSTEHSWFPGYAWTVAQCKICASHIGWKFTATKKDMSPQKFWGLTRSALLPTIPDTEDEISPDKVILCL
Sequence of hCereblon(M1-L442)_hDDB1(M1-H1140) (Q16531 whole entry partner): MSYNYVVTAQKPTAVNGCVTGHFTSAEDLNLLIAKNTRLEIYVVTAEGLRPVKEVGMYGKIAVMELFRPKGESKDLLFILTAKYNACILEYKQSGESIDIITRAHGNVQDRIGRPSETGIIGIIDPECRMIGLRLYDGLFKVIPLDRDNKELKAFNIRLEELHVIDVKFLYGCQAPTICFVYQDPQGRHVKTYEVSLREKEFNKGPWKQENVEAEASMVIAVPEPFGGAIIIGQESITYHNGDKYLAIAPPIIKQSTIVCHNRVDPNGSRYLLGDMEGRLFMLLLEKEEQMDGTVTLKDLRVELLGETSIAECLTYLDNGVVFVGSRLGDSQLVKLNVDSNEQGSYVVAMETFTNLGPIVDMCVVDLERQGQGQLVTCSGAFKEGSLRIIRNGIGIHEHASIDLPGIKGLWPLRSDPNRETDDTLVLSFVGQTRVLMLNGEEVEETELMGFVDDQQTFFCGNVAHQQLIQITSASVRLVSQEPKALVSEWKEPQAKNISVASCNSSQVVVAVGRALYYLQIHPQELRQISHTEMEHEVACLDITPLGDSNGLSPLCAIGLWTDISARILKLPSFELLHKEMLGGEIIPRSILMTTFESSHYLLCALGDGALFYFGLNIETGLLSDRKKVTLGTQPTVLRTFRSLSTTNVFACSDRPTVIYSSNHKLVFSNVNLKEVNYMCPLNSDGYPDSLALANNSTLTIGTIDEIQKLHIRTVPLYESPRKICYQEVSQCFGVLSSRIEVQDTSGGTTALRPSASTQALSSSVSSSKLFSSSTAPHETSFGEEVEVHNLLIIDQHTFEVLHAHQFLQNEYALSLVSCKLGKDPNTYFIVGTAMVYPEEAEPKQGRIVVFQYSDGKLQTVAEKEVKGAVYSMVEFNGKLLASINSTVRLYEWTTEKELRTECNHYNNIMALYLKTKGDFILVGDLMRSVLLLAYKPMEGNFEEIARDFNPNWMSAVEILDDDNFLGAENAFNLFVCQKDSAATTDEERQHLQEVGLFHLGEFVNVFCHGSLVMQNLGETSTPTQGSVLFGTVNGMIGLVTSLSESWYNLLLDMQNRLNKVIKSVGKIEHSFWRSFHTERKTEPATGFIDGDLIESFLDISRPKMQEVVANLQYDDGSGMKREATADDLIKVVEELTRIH
On to `O=C(Nc1ccc2[nH]c(=O)[nH]c2c1)c1ccccc1-c1ccncc1` [Example 136, N-(2-Oxo-2,3-dihydro-1H-benzo[d]imidazol-5-yl)-2-(pyridin-4-yl)benzamide], for which the pKd is 7.10.
The same measure for `CC(=O)Nc1ccc(CC(=O)Nc2ccc3[nH]c(=O)[nH]c3c2)cc1` [Example 78, 2-(4-Acetamidophenyl)-N-(2-oxo-2,3-dihydro-1H-benzo[d]imidazol-5-yl)acetamide]: 7.64; for `CNC(=O)c1ccc2c(c1)nc(C(C)C)n2-c1ccc2[nH]c(=O)[nH]c2c1` [Example 16, 2-Isopropyl-N-methyl-2′-oxo-2′,3′-dihydro-1′H-[1,5′-bibenzo[d]imidazole]-5-carboxamide]: 7.96.
The same measure for `Cn1c(=O)[nH]c2ccc(Nc3ccccc3N)cc21` [Example 52, 6-((2-Aminophenyl)amino)-1-methyl-1,3-dihydro-2H-benzo[d]imidazol-2-one]: 8.22.
The same measure for `CCOC(=O)c1ccc(NS(=O)(=O)c2ccc3[nH]c(=O)[nH]c3c2)cc1` [Example 43, Ethyl 4-((2-oxo-2,3-dihydro-1H-benzo[d]imidazole)-5-sulfonamido)benzoate]: 7.00; for `COC(=O)c1cccc2c1CCCN2C(=O)Nc1ccc2[nH]c(=O)[nH]c2c1` [Example 98, Methyl 1-((2-oxo-2,3-dihydro-1H-benzo[d]imidazol-5-yl)carbamoyl)-1,2,3,4-tetrahydroquinoline-5-carboxylate]: 7.07.
Turning to `COc1ccc(Cc2ccc3[nH]c(=O)[nH]c3c2)cc1` [Example 39, 5-[(4-Methoxyphenyl)methyl]-1,3-dihydrobenzimidazol-2-one], the pKd was 8.22.
The same measure for `CC(=O)N1CCC(N(C)C(=O)c2ccc3[nH]c(=O)[nH]c3c2)CC1` [Example 86, N-(1-Acetylpiperidin-4-yl)-N-methyl-2-oxo-2,3-dihydro-1H-benzo[d]imidazole-5-carboxamide]: 8.40; for `O=C(Nc1cccc(-c2cnco2)c1)c1ccc2[nH]c(=O)[nH]c2c1` [Example 142, N-(3-(Oxazol-5-yl)phenyl)-2-oxo-2,3-dihydro-1H-benzo[d]imidazole-5-carboxamide]: 7.96; for `CNC(=O)c1ccc(C(=O)Nc2ccc3[nH]c(=O)[nH]c3c2)cn1` [Example 133, N2-Methyl-N5-(2-oxo-2,3-dihydro-1H-benzo[d]imidazol-5-yl)pyridine-2,5-dicarboxamide]: 6.92.
The figure for `CNC(=O)c1cccc2c1CCCN2C(=O)Nc1ccc2[nH]c(=O)[nH]c2c1` [Example 109, N5-Methyl-N1-(2-oxo-2,3-dihydro-1H-benzo[d]imidazol-5-yl)-3,4-dihydroquinoline-1,5(2H)-dicarboxamide] is 7.41.
The same measure for `O=c1[nH]c2ccc(N3CCNCC3)cc2[nH]1` [Example 58, 5-(Piperazin-1-yl)-1,3-dihydro-2H-benzo[d]imidazol-2-one]: 7.92.
With `O=C(Nc1ccccc1)Nc1ccc2[nH]c(=O)[nH]c2c1` [Example 88, 1-(2-Oxo-2,3-dihydro-1H-benzo[d]imidazol-5-yl)-3-phenylurea], the pKd is 7.77.
The figure for `CC(=O)N1CCC(C(=O)Nc2ccc3[nH]c(=O)[nH]c3c2)CC1` [Example 91, 1-Acetyl-N-(2-oxo-2,3-dihydro-1H-benzo[d]imidazol-5-yl)piperidine-4-carboxamide] is 8.30; for `O=c1[nH]c2ccc(-c3ccnc(Cl)c3)cc2[nH]1` [Example 20, 5-(2-Chloropyridin-4-yl)-1H-benzo[d]imidazol-2(3H)-one] it is 7.17.

The values are drawn from patent US11787802B2, “Dihydrobenzimidazolones for medical treatment” (C4 Therapeutics, Inc., priority 2017, dated 2023).
